Source: patent publication US8148391B2 (Cephalon, Inc., priority 2006, dated 2012)
Like-named read-outs stand apart in the source and are kept apart here.

What was measured:
[1] = target: T1, baculovirus-expressed ALK (Homo sapiens, UniProt Q9UM73); experiment: ALK Kinase Assay (ELISA-type, time-resolved fluorescence); assay type: biochemical; conditions: 1 μM ATP (Km level)
T1 construct: host or cells: baculovirus expression system
How it was run: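 Plates coated with phospholipase C-γ substrate (10 μg/mL in TBS); reaction started with 30 ng/ml ALK and run 15 min at 37° C. Phosphorylated substrate detected with Eu-N1-labeled PT66 antibody. IC50 from sigmoidal variable-slope fit of percent inhibition vs log concentration.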

[2] = target: T2, c-Met (cytoplasmic domain) (Homo sapiens, UniProt P08581); experiment: c-Met Kinase Assay (same methods as for ALK, with modifications); assay type: biochemical
T2 construct: 10 ng/mL c-Met (cytoplasmic domain, Invitrogen Corporation #PV3143); purchased Invitrogen Corporation PV3143
How it was run: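 Plates were coated with phospholipase C-γ substrate (10 μg/mL) in TBS, and the reaction was started with 10 ng/mL c-Met cytoplasmic domain and run 15 min at 37 °C. Phosphoproduct was detected with Eu-N1-labelled PT66 antibody. IC50 came from a variable-slope sigmoidal fit of percent inhibition vs log concentration.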

[3] = read-out: ALK Activity (ALK Kinase Inhibition, IC50)
[4] = 1 μM ATP (Km level); read-out: cMet Activity (c-Met Kinase Inhibition, IC50)
[5] = 30 ng/ml ALK, 37° C., 15 minutes, read-out: ALK Activity (ALK kinase inhibition, IC50 class)
[6] = 1 μM ATP (Km level), 10 ng/mL c-Met; read-out: cMet Activity (c-Met kinase inhibition, IC50 class)
[7] = ALK kinase inhibition, read-out: ALK Activity
[8] = c-Met kinase inhibition, 1 μM ATP (Km level); read-out: cMet Activity

T2 sequence (P08581 956-1390 limits assumed): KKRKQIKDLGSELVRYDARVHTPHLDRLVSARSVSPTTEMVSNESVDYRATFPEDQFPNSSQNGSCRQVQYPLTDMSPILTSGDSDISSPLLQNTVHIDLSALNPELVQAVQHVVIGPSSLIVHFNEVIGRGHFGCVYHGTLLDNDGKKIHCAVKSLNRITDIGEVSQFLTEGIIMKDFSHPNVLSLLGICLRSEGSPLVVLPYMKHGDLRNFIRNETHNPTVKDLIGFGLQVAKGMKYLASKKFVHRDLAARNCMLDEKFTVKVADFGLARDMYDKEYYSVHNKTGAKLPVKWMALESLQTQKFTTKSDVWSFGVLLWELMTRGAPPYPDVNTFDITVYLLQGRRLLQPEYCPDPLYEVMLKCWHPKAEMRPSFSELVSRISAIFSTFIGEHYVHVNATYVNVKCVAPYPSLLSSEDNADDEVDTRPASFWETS
T1 sequence (Q9UM73 19-1620): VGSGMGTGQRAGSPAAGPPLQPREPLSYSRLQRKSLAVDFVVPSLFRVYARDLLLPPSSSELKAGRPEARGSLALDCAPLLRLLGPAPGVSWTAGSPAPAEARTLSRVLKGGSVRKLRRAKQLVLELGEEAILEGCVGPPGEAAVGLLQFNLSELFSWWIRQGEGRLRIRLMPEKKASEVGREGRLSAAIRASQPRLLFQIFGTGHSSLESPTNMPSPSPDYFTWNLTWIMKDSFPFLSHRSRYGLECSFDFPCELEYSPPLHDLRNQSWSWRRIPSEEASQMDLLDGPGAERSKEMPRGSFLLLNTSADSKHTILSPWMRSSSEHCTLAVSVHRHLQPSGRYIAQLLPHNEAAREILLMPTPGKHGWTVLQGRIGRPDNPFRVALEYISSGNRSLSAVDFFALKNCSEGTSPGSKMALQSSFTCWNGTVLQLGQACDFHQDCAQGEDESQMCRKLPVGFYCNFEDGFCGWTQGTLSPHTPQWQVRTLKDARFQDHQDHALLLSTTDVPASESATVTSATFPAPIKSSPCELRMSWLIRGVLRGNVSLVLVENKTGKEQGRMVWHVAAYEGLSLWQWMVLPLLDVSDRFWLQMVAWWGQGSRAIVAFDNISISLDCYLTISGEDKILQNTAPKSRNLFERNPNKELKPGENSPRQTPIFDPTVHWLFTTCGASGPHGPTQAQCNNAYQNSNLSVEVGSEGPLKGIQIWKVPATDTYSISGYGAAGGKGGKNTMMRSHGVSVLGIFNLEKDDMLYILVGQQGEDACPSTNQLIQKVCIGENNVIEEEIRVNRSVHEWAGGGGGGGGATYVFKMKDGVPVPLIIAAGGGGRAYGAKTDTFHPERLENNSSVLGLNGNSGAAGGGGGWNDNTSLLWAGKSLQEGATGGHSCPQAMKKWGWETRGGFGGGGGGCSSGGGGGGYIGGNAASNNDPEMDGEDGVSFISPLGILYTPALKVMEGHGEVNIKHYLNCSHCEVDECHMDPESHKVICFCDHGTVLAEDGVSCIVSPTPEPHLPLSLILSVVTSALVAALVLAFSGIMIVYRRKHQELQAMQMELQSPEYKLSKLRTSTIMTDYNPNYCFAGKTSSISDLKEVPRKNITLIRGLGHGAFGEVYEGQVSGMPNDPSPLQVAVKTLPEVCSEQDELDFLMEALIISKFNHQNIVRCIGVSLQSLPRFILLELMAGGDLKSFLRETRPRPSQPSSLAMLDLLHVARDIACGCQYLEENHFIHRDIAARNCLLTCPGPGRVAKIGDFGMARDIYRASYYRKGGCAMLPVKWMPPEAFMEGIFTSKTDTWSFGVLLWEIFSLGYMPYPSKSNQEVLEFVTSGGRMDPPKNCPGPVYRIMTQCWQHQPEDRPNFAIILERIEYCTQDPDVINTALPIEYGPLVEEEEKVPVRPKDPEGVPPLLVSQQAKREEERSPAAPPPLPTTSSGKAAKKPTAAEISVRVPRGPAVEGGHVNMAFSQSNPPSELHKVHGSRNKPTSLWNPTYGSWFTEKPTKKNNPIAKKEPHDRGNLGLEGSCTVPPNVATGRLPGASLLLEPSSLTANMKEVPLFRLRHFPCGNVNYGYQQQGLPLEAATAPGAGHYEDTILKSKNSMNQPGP

Structure (SMILES) | IC50 [1, 5] | IC50 [2, 6] | also measured
COCCN(C)C1CCc2ccc(Nc3ncc(Cl)c(N[C@H]4[C@@H](C(N)=O)[C@@H]5C=C[C@H]4C5)n3)c(OC)c2CC1 (single isomer, unassigned) [Example 701] | – | – | IC50 [1, 3]: < 100 nM; IC50 [2, 4]: > 10000 nM
COCCOC(=O)C1[C@@H]2C=C[C@@H](C2)[C@H]1Nc1nc(Nc2ccc3c(c2OC)CC[C@@H](N2CCOCC2)CC3)ncc1Cl (single isomer, unassigned) [Example 904] | – | – | IC50 [1, 3]: 1000 to 10000 nM; IC50 [2, 4]: > 10000 nM
COCCOC(=O)C1[C@@H]2C=C[C@@H](C2)[C@H]1Nc1nc(Nc2ccc3c(c2OC)CC[C@@H](N2CCOCC2)CC3)ncc1Cl (single isomer, unassigned) [Example 905] | – | – | IC50 [1, 3]: 100 to 1000 nM; IC50 [2, 4]: > 10000 nM
COc1c(Nc2ncc(Cl)c(N[C@H]3[C@@H](C(N)=O)[C@@H]4C=C[C@H]3C4)n2)ccc2c1CCCC(N1CCOCC1)C2 (single isomer, unassigned) [Example 940] | – | – | IC50 [1, 3]: < 100 nM; IC50 ([2]; cMet Activity (c-Met Kinase Inhibition, IC50), 1 μM ATP (Km level)): > 10000 nM
COc1c(Nc2ncc(Cl)c(N[C@H]3[C@@H](C(N)=O)[C@@H]4C=C[C@H]3C4)n2)ccc2c1CCCC(N1CCOCC1)C2 (single isomer, unassigned) [Example 941] | – | – | IC50 [1, 3]: < 100 nM; IC50 ([2]; read-out: cMet Activity (c-Met Kinase Inhibition, IC50); 1 μM ATP (Km level)): > 10000 nM
COc1ccc(Nc2ncc(Cl)c(N[C@H]3[C@@H](C(N)=O)[C@@H]4C=C[C@H]3C4)n2)c2c1CCCC(N1CCOCC1)C2 (single isomer, unassigned) [Example 942] | – | – | IC50 [1, 3]: 1000 to 10000 nM; IC50 [2, 4]: > 10000 nM
COc1ccc(Nc2ncc(Cl)c(N[C@H]3[C@@H](C(N)=O)[C@@H]4C=C[C@H]3C4)n2)c2c1CCCC(N1CCOCC1)C2 (single isomer, unassigned) [Example 943] | – | – | IC50 [1, 3]: 1000 to 10000 nM; IC50 [2, 4]: > 10000 nM
COc1cc2c(cc1Nc1ncc(Cl)c(N[C@H]3[C@@H](C(N)=O)[C@@H]4C=C[C@H]3C4)n1)CCC(NCC(F)F)CC2 (single isomer, unassigned) [Example 1053] | < 100 nM | > 10000 nM | –
COc1cc2c(cc1Nc1ncc(Cl)c(N[C@H]3[C@@H](C(N)=O)[C@@H]4C=C[C@H]3C4)n1)CCC(NCC(F)F)CC2 (single isomer, unassigned) [Example 1054] | < 100 nM | > 10000 nM | –
COc1cc2c(cc1Nc1ncc(Cl)c(N[C@@H]3CCCC[C@H]3NS(C)(=O)=O)n1)CCC(NCC(F)F)CC2 (single isomer, unassigned) [Example 1057] | < 100 nM | > 10000 nM | –
COc1cc2c(cc1Nc1ncc(Cl)c(N[C@@H]3CCCC[C@H]3NS(C)(=O)=O)n1)CCC(NCC(F)F)CC2 (single isomer, unassigned) [Example 1058] | < 100 nM | > 10000 nM | –
COc1ccc2c(c1Nc1ncc(Cl)c(N[C@@H]3CCCC[C@H]3NS(C)(=O)=O)n1)CCC(NCC(F)F)CC2 (single isomer, unassigned) [Example 1074] | 100 to 1000 nM | > 10000 nM | –
COc1ccc2c(c1Nc1ncc(Cl)c(N[C@@H]3CCCC[C@H]3NS(C)(=O)=O)n1)CCC(NCC(F)F)CC2 (single isomer, unassigned) [Example 1075] | 1000 to 10000 nM | > 10000 nM | –
COc1cc2c(cc1Nc1ncc(Cl)c(N[C@@H]3CCCC[C@H]3NS(C)(=O)=O)n1)CCC(NCCO)CC2 (single isomer, unassigned) [Example 1094] | < 100 nM | > 10000 nM | –
COc1cc2c(cc1Nc1ncc(Cl)c(N[C@@H]3CCCC[C@H]3NS(C)(=O)=O)n1)CCC(NCCO)CC2 (single isomer, unassigned) [Example 1095] | < 100 nM | > 10000 nM | –
COc1cc2c(cc1Nc1ncc(Cl)c(N[C@H]3[C@@H](C(N)=O)[C@@H]4C=C[C@H]3C4)n1)CCC(NCCO)CC2 (single isomer, unassigned) [Example 1096] | < 100 nM | > 10000 nM | –
COc1cc2c(cc1Nc1ncc(Cl)c(N[C@H]3[C@@H](C(N)=O)[C@@H]4C=C[C@H]3C4)n1)CCC(NCCO)CC2 (single isomer, unassigned) [Example 1097] | < 100 nM | > 10000 nM | –
COc1cc2c(cc1Nc1ncc(Cl)c(N[C@@H]3CCCC[C@H]3NS(C)(=O)=O)n1)CCC(N1CCN(C)CC1)CC2 (single isomer, unassigned) [Example 1101] | < 100 nM | > 10000 nM | –

Structure (SMILES) | IC50 [1, 5] | IC50 [2, 6] | also measured
COc1cc2c(cc1Nc1ncc(Cl)c(N[C@@H]3CCCC[C@H]3NS(C)(=O)=O)n1)CCC(N1CCN(C)CC1)CC2 (single isomer, unassigned) [Example 1102] | < 100 nM | < 100 nM | –
CCN1C(=O)[C@H](N)CCc2c1ccc(Nc1ncc(Cl)c(N[C@H]3[C@@H](C(N)=O)[C@@H]4C=C[C@H]3C4)n1)c2OC (single isomer, unassigned) [Example 1331] | < 100 nM | > 10000 nM | –
CCN1C(=O)[C@@H](N)CCc2c1ccc(Nc1ncc(Cl)c(N[C@H]3[C@@H](C(N)=O)[C@@H]4C=C[C@H]3C4)n1)c2OC (single isomer, unassigned) [Example 1332] | < 100 nM | > 10000 nM | –
CCN1C(=O)[C@H](N2CCOCC2)CCc2c1ccc(Nc1ncc(Cl)c(N[C@H]3[C@@H](C(N)=O)[C@@H]4C=C[C@H]3C4)n1)c2OC (single isomer, unassigned) [Example 1344] | < 100 nM | > 10000 nM | –
CCN1C(=O)[C@@H](N2CCOCC2)CCc2c1ccc(Nc1ncc(Cl)c(N[C@H]3[C@@H](C(N)=O)[C@@H]4C=C[C@H]3C4)n1)c2OC (single isomer, unassigned) [Example 1345] | < 100 nM | > 10000 nM | –
CCN1C(=O)[C@H](N(C)C)CCc2c1ccc(Nc1ncc(Cl)c(N[C@H]3[C@@H](C(N)=O)[C@@H]4C=C[C@H]3C4)n1)c2OC (single isomer, unassigned) [Example 1346] | < 100 nM | 1000 to 10000 nM | –
CCN1C(=O)[C@@H](N(C)C)CCc2c1ccc(Nc1ncc(Cl)c(N[C@H]3[C@@H](C(N)=O)[C@@H]4C=C[C@H]3C4)n1)c2OC (single isomer, unassigned) [Example 1347] | < 100 nM | 1000 to 10000 nM | –
CCN1C(=O)[C@H](NC(=O)COC)CCc2c1ccc(Nc1ncc(Cl)c(N[C@H]3[C@@H](C(N)=O)[C@@H]4C=C[C@H]3C4)n1)c2OC (single isomer, unassigned) [Example 1350] | < 100 nM | > 10000 nM | –
CCN1C(=O)[C@@H](NC(=O)COC)CCc2c1ccc(Nc1ncc(Cl)c(N[C@H]3[C@@H](C(N)=O)[C@@H]4C=C[C@H]3C4)n1)c2OC (single isomer, unassigned) [Example 1351] | < 100 nM | > 10000 nM | –
CCN1C(=O)[C@H](NC(=O)CN(C)C)CCc2c1ccc(Nc1ncc(Cl)c(N[C@H]3[C@@H](C(N)=O)[C@@H]4C=C[C@H]3C4)n1)c2OC (single isomer, unassigned) [Example 1354] | < 100 nM | > 10000 nM | –
CCN1C(=O)[C@@H](NC(=O)CN(C)C)CCc2c1ccc(Nc1ncc(Cl)c(N[C@H]3[C@@H](C(N)=O)[C@@H]4C=C[C@H]3C4)n1)c2OC (single isomer, unassigned) [Example 1355] | < 100 nM | > 10000 nM | –
CCN1C(=O)[C@H](NC(=O)C2CC2)CCc2c1ccc(Nc1ncc(Cl)c(N[C@H]3[C@@H](C(N)=O)[C@@H]4C=C[C@H]3C4)n1)c2OC (single isomer, unassigned) [Example 1357] | < 100 nM | > 10000 nM | –
CCN1C(=O)[C@@H](NC(=O)C2CC2)CCc2c1ccc(Nc1ncc(Cl)c(N[C@H]3[C@@H](C(N)=O)[C@@H]4C=C[C@H]3C4)n1)c2OC (single isomer, unassigned) [Example 1358] | < 100 nM | > 10000 nM | –
CNC(=O)c1ccccc1Nc1nc(Nc2ccc3c(c2)CCCC(=O)N3)ncc1Cl [Example 2, 2-[5-Chloro-2-(2-oxo-2,3,4,5-tetrahydro-1H-benzo[b]azepin-7-ylamino)-pyrimidin-4-ylamino]-N-methyl-benzamide] | – | – | IC50 [1, 7]: < 100 nM; IC50 [2, 8]: < 100 nM
CNS(=O)(=O)c1ccccc1Nc1nc(Nc2ccc3c(c2)CCCC(=O)N3)ncc1Cl [Example 5, 2-[5-Chloro-2-(2-oxo-2,3,4,5-tetrahydro-1H-benzo[b]azepin-7-ylamino)-pyrimidin-4-ylamino]-N-methyl-benzenesulfonamide] | – | – | IC50 [1, 7]: < 100 nM; IC50 [2, 8]: < 100 nM
CN1C(=O)CCCc2cc(Nc3ncc(Cl)c(Nc4ccccc4C(=O)NCCO)n3)ccc21 [Example 6, 2-[5-Chloro-2-(1-methyl-2-oxo-2,3,4,5-tetrahydro-1H-benzo[b]azepin-7-ylamino)-pyrimidin-4-ylamino]-N-(2-hydroxy-ethyl)-benzamide] | – | – | IC50 [1, 7]: < 100 nM; IC50 [2, 8]: < 100 nM
CNS(=O)(=O)c1ccccc1Nc1nc(Nc2ccc3c(c2)CCCC(=O)N3CC(=O)OC)ncc1Cl [Example 8, {7-[5-Chloro-4-(2-methylsulfamoyl-phenylamino)-pyrimidin-2-ylamino]-2-oxo-2,3,4,5-tetrahydro-benzo[b]azepin-1-yl}-acetic acid methyl ester] | – | – | IC50 [1, 7]: < 100 nM; IC50 [2, 8]: < 100 nM
